Patent US11155523B2, “Biphenyl compound as CCR2/CCR5 receptor antagonist” (Medshine Discovery Inc., priority 2016, dated 2021)

How the values were obtained:
CCR2 = biological target: T1, CCR2 (Homo sapiens, UniProt P41597); experiment: CCR2 in vitro test: intracellular calcium signal detected by FLIPR; type: cell-based; settings: HEK293 cells expressing CCR2, agonist MCP-1 at EC80, calcium signal
T1 construct: expressed in transfected cells; host or cells: HEK293, clone C7, passage P6
Method in brief: (§1)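 Receptor-expressing cells loaded with Fluo-4 Direct and probenecid (2.5 mM final), then preincubated with compounds (11-point 1:3 series) before challenge at EC80 of agonist (MCP-1 for CCR2, RANTES for CCR5). FLIPR calcium max−min signal; IC50 fitted.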

CCR5 = biological target: T2, CCR5 (Homo sapiens, UniProt P51681); experiment: CCR5 in vitro test: intracellular calcium signal detected by FLIPR; type: cell-based; settings: HEK293 cells expressing CCR5, agonist RANTES at EC80, calcium signal
T2 construct: expressed in transfected cells; host or cells: HEK293, clone C13, passage P4
T2 sequence (P51681 whole entry, species assumed): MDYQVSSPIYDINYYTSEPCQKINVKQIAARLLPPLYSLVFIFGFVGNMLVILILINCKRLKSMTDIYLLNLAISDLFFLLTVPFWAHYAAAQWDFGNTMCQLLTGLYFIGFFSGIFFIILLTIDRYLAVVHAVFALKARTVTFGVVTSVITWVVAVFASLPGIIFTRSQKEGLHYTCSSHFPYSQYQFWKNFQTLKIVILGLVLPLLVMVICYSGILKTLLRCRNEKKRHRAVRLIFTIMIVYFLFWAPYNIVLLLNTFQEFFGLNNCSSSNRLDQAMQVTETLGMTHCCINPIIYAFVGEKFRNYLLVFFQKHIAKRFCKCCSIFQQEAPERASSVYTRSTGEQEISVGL
Method in brief: as §1

[1] = Comparative pharmacokinetics study in rats; type: in vivo, SD male rats; settings: rat
Protocol: Experimental Example 2: Comparative Pharmacokinetics Study in Rats
SD male rats were used as the test animals in this study. The drug concentrations in plasma of the rats by intravenous or oral administration of test compounds WX017, WX047, WX079, WX088 and reference compound at different time points were quantitatively determined by LC/MS/MS, which were used to evaluate the pharmacokinetic profile of the two test drugs in rats.
A clear solution of the test compound was injected into SD rats via the tail vein (overnight fasting, 7-10 weeks old), and the test compound was orally administered to the SD rats (overnight fasting, 7-10 weeks old). Approximately 200 μL of blood was collected from the jugular vein or tail vein of the animals 0.0833, 0.25, 0.5, 1, 2, 4, 6, 8 and 24 hours after administration, and was placed in an anticoagulant tube containing EDTA-K2. The plasma was collected by centrifugation at 3000 g for 15 minutes at 4° C. The plasma concentration was determined by LC-MS/MS. The pharmacokinetic parameters were calculated by the non-compartment model linear logarithmic trapezoidal method using WinNonlin™ Version 6.3 (Pharsight, Mountain View, Calif.) pharmacokinetic software.

CYP2C9 = biological target: T3, CYP2C9 (Homo sapiens, UniProt P11712); experiment: Inhibition of human liver microsomal CYP2C9 (diclofenac probe); type: in vitro ADME; settings: human liver microsomes
T3 construct: from tissue; host or cells: human liver microsomes
T3 sequence (P11712 whole entry): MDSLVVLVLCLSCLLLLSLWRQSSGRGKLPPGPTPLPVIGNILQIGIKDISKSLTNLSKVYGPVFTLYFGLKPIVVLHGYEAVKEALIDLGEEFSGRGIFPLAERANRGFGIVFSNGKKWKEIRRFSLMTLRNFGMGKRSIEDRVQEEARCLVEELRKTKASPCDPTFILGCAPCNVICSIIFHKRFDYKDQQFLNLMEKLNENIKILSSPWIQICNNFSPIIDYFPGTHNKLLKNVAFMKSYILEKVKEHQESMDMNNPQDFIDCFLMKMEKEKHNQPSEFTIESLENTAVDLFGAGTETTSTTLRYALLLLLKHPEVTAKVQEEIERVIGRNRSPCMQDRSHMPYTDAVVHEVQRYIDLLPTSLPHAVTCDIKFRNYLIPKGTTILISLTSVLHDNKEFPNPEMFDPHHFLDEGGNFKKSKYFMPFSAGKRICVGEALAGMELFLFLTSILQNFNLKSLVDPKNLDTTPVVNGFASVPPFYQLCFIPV
Protocol: (§2) Experimental Example 4 Inhibition Effect on the Activity of Human Liver Microsomal Cytochrome P450 Isoezymes (CYP1A2, CYP2C9, CYP2C19, CYP2D6 and CYP3A4)
(§3) A total of 5 specific probe substrates for CYP's five isozymes, Phenacetin (CYP1A2), Diclofenac (CYP2C9), […] (S)-Mephenytoin, CYP2C19), Dextromethorphan (CYP2D6) and Midazolam (CYP3A4) were incubated with human liver microsomes and test compounds, respectively, and reduced nicotinamide adenine dinucleotide phosphate (NADPH) was added to initiate the reaction. After the reaction, the sample was processed and liquid chromatography tandem mass spectrometry (LC-MS/MS) was used to quantitatively detect the […] metabolites produced by the specific substrate, Acetaminophen and 4′-hydroxydiclofenac, 4′-hydroxymephenytoin, Dextrorphan and 1′-hydroxymidazolam, in order to calculate the corresponding half maximal inhibitory concentration (IC50).

CYP2C19 = biological target: T4, CYP2C19 (Homo sapiens, UniProt P33261); experiment: Inhibition of human liver microsomal CYP2C19 ((S)-mephenytoin probe); type: in vitro ADME; settings: human liver microsomes
T4 construct: from tissue; host or cells: human liver microsomes
T4 sequence (P33261 whole entry): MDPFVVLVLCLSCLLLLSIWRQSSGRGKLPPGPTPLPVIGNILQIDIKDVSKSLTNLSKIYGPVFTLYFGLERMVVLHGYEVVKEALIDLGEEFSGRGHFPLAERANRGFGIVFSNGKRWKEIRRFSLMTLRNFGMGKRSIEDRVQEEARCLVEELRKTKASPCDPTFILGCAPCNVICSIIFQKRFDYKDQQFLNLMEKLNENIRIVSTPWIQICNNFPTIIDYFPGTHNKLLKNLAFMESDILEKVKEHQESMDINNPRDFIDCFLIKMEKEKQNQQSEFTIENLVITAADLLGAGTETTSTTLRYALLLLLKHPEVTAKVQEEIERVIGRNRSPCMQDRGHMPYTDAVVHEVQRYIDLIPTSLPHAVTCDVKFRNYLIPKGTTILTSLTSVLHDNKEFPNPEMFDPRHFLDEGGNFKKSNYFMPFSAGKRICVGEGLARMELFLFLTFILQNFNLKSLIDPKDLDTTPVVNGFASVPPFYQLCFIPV
Protocol: as §2, §3

CYP2D6 = biological target: T5, CYP2D6 (Homo sapiens, UniProt P10635); experiment: Inhibition of human liver microsomal CYP2D6 (dextromethorphan probe); type: in vitro ADME; settings: human liver microsomes
T5 construct: from tissue; host or cells: human liver microsomes
T5 sequence (P10635 whole entry): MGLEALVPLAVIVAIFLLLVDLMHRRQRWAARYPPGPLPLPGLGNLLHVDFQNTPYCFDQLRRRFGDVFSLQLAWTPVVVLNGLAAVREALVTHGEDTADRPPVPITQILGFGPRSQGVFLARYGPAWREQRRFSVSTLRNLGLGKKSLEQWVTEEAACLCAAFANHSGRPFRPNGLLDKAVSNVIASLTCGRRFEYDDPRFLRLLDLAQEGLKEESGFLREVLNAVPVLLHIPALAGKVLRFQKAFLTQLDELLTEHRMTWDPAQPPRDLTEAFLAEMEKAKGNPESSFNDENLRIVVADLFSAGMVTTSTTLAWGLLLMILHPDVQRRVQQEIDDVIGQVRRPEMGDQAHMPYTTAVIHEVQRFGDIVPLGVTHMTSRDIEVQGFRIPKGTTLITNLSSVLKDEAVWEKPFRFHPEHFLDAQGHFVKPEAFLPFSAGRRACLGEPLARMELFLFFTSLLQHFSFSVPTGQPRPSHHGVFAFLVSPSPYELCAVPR
Protocol: as §2, §3

[2] = male, Sprague-Dawley (SD), plasma, intravenous injection 2 mg/kg

T1 sequence (P41597 whole entry, species assumed): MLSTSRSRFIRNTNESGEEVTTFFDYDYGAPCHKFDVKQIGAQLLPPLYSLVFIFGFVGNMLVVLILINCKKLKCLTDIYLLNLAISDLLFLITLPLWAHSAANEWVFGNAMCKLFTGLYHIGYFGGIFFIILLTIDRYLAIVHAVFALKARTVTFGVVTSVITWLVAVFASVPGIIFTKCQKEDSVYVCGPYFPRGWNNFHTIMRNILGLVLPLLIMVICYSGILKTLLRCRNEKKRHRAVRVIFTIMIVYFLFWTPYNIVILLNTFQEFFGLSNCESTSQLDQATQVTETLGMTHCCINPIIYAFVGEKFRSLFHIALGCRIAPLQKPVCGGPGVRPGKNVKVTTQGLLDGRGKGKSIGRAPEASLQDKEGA

IC50 (CCR2): 8.2 nM
IC50 (CCR5): 6.7 nM
clearance [1, 2]: 0.52 mL/min/kg
half-life [1, 2]: 3.06 h
bioavailability ([1]; male, Sprague-Dawley (SD), plasma, oral 10 mg/kg vs intravenous 2 mg/kg): 40.4%
Area Under a Curve (0-inf) ([1]; intravenous injection 2 mg/kg): 101.904 µM·h
Area Under a Curve (0-inf/0-last) ([1]; oral 10 mg/kg): 204.785 µM·h
Peak time ([1]; oral 10 mg/kg): 5.0 h
Oral plasma system exposure (AUC0-inf) as multiple of the reference compound ([1]; oral, relative to Cenicriviroc): 6.4 times
Plasma clearance as percent of that of the reference compound ([1]; relative to Cenicriviroc): 33%
IC50 (CYP2C9): > 50000 nM
IC50 (CYP2C19): > 50000 nM
IC50 (CYP2D6): > 50000 nM
SMILES: CCCCOCCOc1ccc(-c2ccc(OCC)c(/C=C/C(=O)Nc3ccc([S@+]([O-])Cc4c(C)ncn4CC)cc3)c2)cc1 [WX047]
